In PubChem BioAssay (NCI):
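Cells were grown in 96-well plates and exposed to each compound for 48 hours at five concentrations; endpoints were interpolated linearly between bracketing concentrations, or set to the highest concentration if not reached. GI50: concentration for 50% inhibition of growth. The concentration for full growth arrest is given as TGI.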

How the values were obtained:
Experiment in all cases: NCI tumour cell line growth inhibition, 48 h
SW-620 colon = system: SW-620 colon
TK-10 renal = system: TK-10 renal
EKVX NSCLC = system: EKVX NSCLC
786-0 renal = system: 786-0 renal
UACC-62 melanoma = system: UACC-62 melanoma
HT29 colon = system: HT29 colon
NCI-H460 lung = system: NCI-H460 lung
OVCAR-4 ovarian = system: OVCAR-4 ovarian
SF-539 CNS = system: SF-539 CNS
SK-OV-3 ovarian = system: SK-OV-3 ovarian
PC-3 prostate = system: PC-3 prostate
SNB-75 CNS = system: SNB-75 CNS
K-562 leukemia = system: K-562 leukemia
SK-MEL-2 melanoma = system: SK-MEL-2 melanoma
HCT-116 colon = system: HCT-116 colon
RPMI-8226 leukemia = system: RPMI-8226 leukemia
HS 578T breast = system: HS 578T breast
OVCAR-3 ovarian = system: OVCAR-3 ovarian
MDA-MB-231 breast = system: MDA-MB-231 breast
IGROV1 ovarian = system: IGROV1 ovarian
COLO 205 colon = system: COLO 205 colon
MCF7 breast = system: MCF7 breast
SN12C renal = system: SN12C renal
A549 NSCLC = system: A549 NSCLC
SK-MEL-28 melanoma = system: SK-MEL-28 melanoma
RXF 393 renal = system: RXF 393 renal
NCI-H522 lung = system: NCI-H522 lung
U251 CNS = system: U251 CNS
UACC-257 melanoma = system: UACC-257 melanoma
SF-295 CNS = system: SF-295 CNS
HCC-2998 colon = system: HCC-2998 colon
HCT-15 colon = system: HCT-15 colon
MOLT-4 leukemia = system: MOLT-4 leukemia
SF-268 CNS = system: SF-268 CNS
NCI-H226 lung = system: NCI-H226 lung
UO-31 renal = system: UO-31 renal
NCI/ADR-RES ovarian = system: NCI/ADR-RES ovarian
A498 renal = system: A498 renal
MDA-MB-435 = system: MDA-MB-435
OVCAR-5 ovarian = system: OVCAR-5 ovarian
CAKI-1 renal = system: CAKI-1 renal
OVCAR-8 ovarian = system: OVCAR-8 ovarian
CCRF-CEM leukemia = system: CCRF-CEM leukemia
BT-549 breast = system: BT-549 breast
SK-MEL-5 melanoma = system: SK-MEL-5 melanoma
DU-145 prostate = system: DU-145 prostate
HOP-92 NSCLC = system: HOP-92 NSCLC
NCI-H23 lung = system: NCI-H23 lung
SNB-19 CNS = system: SNB-19 CNS
M14 melanoma = system: M14 melanoma
LOX IMVI melanoma = system: LOX IMVI melanoma
HOP-62 NSCLC = system: HOP-62 NSCLC
T-47D breast = system: T-47D breast
KM12 colon = system: KM12 colon
MALME-3M melanoma = system: MALME-3M melanoma
ACHN renal = system: ACHN renal

With `COc1ccc2c(c1)c(=O)oc1cc(OC/C(C)=N\O)ccc12` the GI50 (SW-620 colon) was > 100 µM, the TGI (SW-620 colon) was > 100 µM and the GI50 (TK-10 renal) was 44.8 µM. The TGI (TK-10 renal) was > 100 µM, the GI50 (EKVX NSCLC) was 3.38 µM and the TGI (EKVX NSCLC) was > 100 µM. For the same compound, the GI50 (786-0 renal) was > 100 µM, the TGI (786-0 renal) was > 100 µM and the GI50 (UACC-62 melanoma) was 75.5 µM. For the same compound, the TGI (UACC-62 melanoma) was > 100 µM, the GI50 (HT29 colon) was > 100 µM and the TGI (HT29 colon) was > 100 µM. For the same compound, the GI50 (NCI-H460 lung) was > 100 µM, the TGI (NCI-H460 lung) was > 100 µM and the GI50 (OVCAR-4 ovarian) was > 100 µM. For the same compound, the TGI (OVCAR-4 ovarian) was > 100 µM, the GI50 (SF-539 CNS) was 59.5 µM and the TGI (SF-539 CNS) was > 100 µM. For the same compound, the GI50 (SK-OV-3 ovarian) was 99.7 µM, the TGI (SK-OV-3 ovarian) was > 100 µM and the GI50 (PC-3 prostate) was > 100 µM. The TGI (PC-3 prostate) was > 100 µM, the GI50 (SNB-75 CNS) was 14.9 µM and the TGI (SNB-75 CNS) was 42.9 µM. For the same compound, the GI50 (K-562 leukemia) was > 100 µM, the TGI (K-562 leukemia) was > 100 µM and the GI50 (SK-MEL-2 melanoma) was > 100 µM. For the same compound, the TGI (SK-MEL-2 melanoma) was > 100 µM, the GI50 (HCT-116 colon) was > 100 µM and the TGI (HCT-116 colon) was > 100 µM. The GI50 (RPMI-8226 leukemia) was > 100 µM, the TGI (RPMI-8226 leukemia) was > 100 µM and the GI50 (HS 578T breast) was 27.6 µM. For the same compound, the TGI (HS 578T breast) was > 100 µM, the GI50 (OVCAR-3 ovarian) was > 100 µM and the TGI (OVCAR-3 ovarian) was > 100 µM. The GI50 (MDA-MB-231 breast) was 42.9 µM, the TGI (MDA-MB-231 breast) was > 100 µM and the GI50 (IGROV1 ovarian) was > 100 µM. For the same compound, the TGI (IGROV1 ovarian) was > 100 µM, the GI50 (COLO 205 colon) was > 100 µM and the TGI (COLO 205 colon) was > 100 µM. The GI50 (MCF7 breast) was > 100 µM, the TGI (MCF7 breast) was > 100 µM and the GI50 (SN12C renal) was > 100 µM. The TGI (SN12C renal) was > 100 µM, the GI50 (A549 NSCLC) was > 100 µM and the TGI (A549 NSCLC) was > 100 µM. The GI50 (SK-MEL-28 melanoma) was > 100 µM, the TGI (SK-MEL-28 melanoma) was > 100 µM and the GI50 (RXF 393 renal) was 56.6 µM. The TGI (RXF 393 renal) was > 100 µM, the GI50 (NCI-H522 lung) was 44.5 µM and the TGI (NCI-H522 lung) was > 100 µM. For the same compound, the GI50 (U251 CNS) was 33.4 µM, the TGI (U251 CNS) was > 100 µM and the GI50 (UACC-257 melanoma) was > 100 µM. The TGI (UACC-257 melanoma) was > 100 µM, the GI50 (SF-295 CNS) was 37.9 µM and the TGI (SF-295 CNS) was > 100 µM. For the same compound, the GI50 (HCC-2998 colon) was > 100 µM, the TGI (HCC-2998 colon) was > 100 µM and the GI50 (HCT-15 colon) was > 100 µM. The TGI (HCT-15 colon) was > 100 µM, the GI50 (MOLT-4 leukemia) was > 100 µM and the TGI (MOLT-4 leukemia) was > 100 µM. The GI50 (SF-268 CNS) was 37.7 µM, the TGI (SF-268 CNS) was > 100 µM and the GI50 (NCI-H226 lung) was > 100 µM. The TGI (NCI-H226 lung) was > 100 µM, the GI50 (UO-31 renal) was 33.3 µM and the TGI (UO-31 renal) was > 100 µM. The GI50 (NCI/ADR-RES ovarian) was > 100 µM, the TGI (NCI/ADR-RES ovarian) was > 100 µM and the GI50 (A498 renal) was > 100 µM. The TGI (A498 renal) was > 100 µM, the GI50 (MDA-MB-435) was > 100 µM and the TGI (MDA-MB-435) was > 100 µM. The GI50 (OVCAR-5 ovarian) was > 100 µM, the TGI (OVCAR-5 ovarian) was > 100 µM and the GI50 (CAKI-1 renal) was > 100 µM. The TGI (CAKI-1 renal) was > 100 µM, the GI50 (OVCAR-8 ovarian) was > 100 µM and the TGI (OVCAR-8 ovarian) was > 100 µM. For the same compound, the GI50 (CCRF-CEM leukemia) was > 100 µM, the TGI (CCRF-CEM leukemia) was > 100 µM and the GI50 (BT-549 breast) was 49.2 µM. The TGI (BT-549 breast) was > 100 µM, the GI50 (SK-MEL-5 melanoma) was > 100 µM and the TGI (SK-MEL-5 melanoma) was > 100 µM. For the same compound, the GI50 (DU-145 prostate) was > 100 µM, the TGI (DU-145 prostate) was > 100 µM and the GI50 (HOP-92 NSCLC) was 69.5 µM. For the same compound, the TGI (HOP-92 NSCLC) was > 100 µM, the GI50 (NCI-H23 lung) was > 100 µM and the TGI (NCI-H23 lung) was > 100 µM. The GI50 (SNB-19 CNS) was 48.3 µM, the TGI (SNB-19 CNS) was > 100 µM and the GI50 (M14 melanoma) was > 100 µM. The TGI (M14 melanoma) was > 100 µM, the GI50 (LOX IMVI melanoma) was > 100 µM and the TGI (LOX IMVI melanoma) was > 100 µM. The GI50 (HOP-62 NSCLC) was 28.7 µM, the TGI (HOP-62 NSCLC) was > 100 µM and the GI50 (T-47D breast) was > 100 µM. The TGI (T-47D breast) was > 100 µM, the GI50 (KM12 colon) was > 100 µM and the TGI (KM12 colon) was > 100 µM. For the same compound, the GI50 (MALME-3M melanoma) was > 100 µM, the TGI (MALME-3M melanoma) was > 100 µM and the GI50 (ACHN renal) was 29.9 µM. The TGI (ACHN renal) was > 100 µM.
